Experimental findings from patent publication US20090311217A1, “3-SUBSTITUTED-1H-INDOLE COMPOUNDS, THEIR USE AS MTOR KINASE AND PI3 KINASE INHIBITORS, AND THEIR SYNTHESES” (priority 2008, published 2009) are described below.

Molecules are shown by their SMILES. pIC50: −log10 of the molar value. Like-named read-outs stand apart in the source and are kept apart here. Bounds are passed on as bounds.

What all share (type): biochemical
One experiment concerns the target PI3K-alpha (Homo sapiens, UniProt P42336). Description: PI3K-alpha fluorescence polarization assay. (In general: Polarisation of emitted light reports the rotation of a fluorescent probe.)
For another experiment, the target named is PI3K-gamma (Homo sapiens, UniProt P48736). Put plainly: PI3K-gamma fluorescence polarization assay. Conditions: PI3Kγ Avg. IC50. The procedure, abridged: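 Enzyme 5 ng; substrate diC8-PI(4,5)P2 2.5 μM; ATP 25 μM; 5 mM HEPES pH 7, 2.5 mM MgCl2; DMSO ≤2%; 1 h, 25° C. Quench 10 mM EDTA. Detect with GRP1 PH domain 100 nM + TMR-IP4 probe 5 nM by polarization.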

The next experiment addresses T1, human TOR (Homo sapiens, UniProt P42345).
T1 construct: FLAG
Description: mTOR enzyme assay (DELFIA, His6-S6K substrate). Conditions: read-out: mTOR Kinase Avg. IC50.

Chain of PI3K-gamma (P48736 whole entry, species assumed, the tested form may be a part): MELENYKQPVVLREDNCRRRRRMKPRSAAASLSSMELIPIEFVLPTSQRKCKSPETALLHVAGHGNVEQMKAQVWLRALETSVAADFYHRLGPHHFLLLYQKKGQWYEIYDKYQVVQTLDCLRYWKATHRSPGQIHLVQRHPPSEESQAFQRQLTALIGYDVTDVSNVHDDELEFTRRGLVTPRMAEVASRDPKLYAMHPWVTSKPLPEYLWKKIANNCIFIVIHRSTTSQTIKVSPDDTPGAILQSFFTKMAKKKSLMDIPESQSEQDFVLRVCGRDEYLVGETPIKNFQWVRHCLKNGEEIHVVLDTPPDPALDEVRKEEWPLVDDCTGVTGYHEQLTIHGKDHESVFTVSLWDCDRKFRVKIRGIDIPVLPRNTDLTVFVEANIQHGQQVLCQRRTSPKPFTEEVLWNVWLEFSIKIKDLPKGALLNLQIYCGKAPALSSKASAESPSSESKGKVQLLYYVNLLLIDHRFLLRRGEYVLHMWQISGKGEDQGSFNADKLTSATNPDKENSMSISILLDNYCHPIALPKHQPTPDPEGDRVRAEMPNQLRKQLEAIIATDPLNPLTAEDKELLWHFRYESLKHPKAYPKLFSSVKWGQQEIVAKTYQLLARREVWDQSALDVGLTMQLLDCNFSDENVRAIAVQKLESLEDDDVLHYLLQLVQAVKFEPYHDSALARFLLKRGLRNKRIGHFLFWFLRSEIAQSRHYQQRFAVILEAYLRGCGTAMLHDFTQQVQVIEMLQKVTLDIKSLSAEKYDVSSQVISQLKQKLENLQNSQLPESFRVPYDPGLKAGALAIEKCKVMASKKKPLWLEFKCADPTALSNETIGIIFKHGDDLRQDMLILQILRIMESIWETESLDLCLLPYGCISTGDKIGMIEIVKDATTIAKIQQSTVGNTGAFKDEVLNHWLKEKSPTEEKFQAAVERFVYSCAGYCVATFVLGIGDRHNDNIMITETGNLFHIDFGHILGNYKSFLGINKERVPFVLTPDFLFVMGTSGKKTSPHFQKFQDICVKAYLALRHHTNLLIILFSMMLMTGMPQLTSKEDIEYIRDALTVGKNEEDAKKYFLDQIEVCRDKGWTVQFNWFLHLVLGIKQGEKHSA
Chain of PI3K-alpha (P42336 whole entry, species assumed, the tested form may be a part): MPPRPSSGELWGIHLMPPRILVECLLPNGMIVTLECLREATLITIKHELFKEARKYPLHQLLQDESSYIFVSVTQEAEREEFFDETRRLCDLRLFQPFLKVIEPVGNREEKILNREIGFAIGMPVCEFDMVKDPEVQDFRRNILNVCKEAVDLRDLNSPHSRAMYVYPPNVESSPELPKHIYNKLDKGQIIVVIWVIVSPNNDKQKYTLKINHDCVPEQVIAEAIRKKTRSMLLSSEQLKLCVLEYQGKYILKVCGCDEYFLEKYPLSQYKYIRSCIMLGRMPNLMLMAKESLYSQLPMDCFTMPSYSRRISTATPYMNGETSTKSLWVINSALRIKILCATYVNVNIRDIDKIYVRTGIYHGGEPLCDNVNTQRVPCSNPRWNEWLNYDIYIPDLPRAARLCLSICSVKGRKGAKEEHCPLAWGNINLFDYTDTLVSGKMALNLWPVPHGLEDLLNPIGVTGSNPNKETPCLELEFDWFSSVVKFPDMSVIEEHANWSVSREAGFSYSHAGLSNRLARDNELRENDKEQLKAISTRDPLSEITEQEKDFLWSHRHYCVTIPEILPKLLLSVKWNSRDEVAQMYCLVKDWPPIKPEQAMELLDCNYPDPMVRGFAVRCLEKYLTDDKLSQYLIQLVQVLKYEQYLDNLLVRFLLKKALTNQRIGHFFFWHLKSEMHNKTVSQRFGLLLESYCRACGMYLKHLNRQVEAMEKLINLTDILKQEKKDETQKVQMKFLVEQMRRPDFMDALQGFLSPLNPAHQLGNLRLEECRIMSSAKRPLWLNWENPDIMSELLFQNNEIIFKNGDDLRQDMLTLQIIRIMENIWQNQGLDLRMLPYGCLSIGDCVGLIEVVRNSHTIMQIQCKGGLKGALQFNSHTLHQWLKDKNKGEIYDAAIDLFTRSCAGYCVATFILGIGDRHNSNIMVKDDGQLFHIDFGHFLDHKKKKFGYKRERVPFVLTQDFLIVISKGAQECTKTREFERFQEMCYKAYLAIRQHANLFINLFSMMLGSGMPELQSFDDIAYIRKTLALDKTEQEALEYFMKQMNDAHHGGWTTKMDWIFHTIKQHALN
Chain of PI3K-alpha (P27986 whole entry partner, species assumed, the tested form may be a part): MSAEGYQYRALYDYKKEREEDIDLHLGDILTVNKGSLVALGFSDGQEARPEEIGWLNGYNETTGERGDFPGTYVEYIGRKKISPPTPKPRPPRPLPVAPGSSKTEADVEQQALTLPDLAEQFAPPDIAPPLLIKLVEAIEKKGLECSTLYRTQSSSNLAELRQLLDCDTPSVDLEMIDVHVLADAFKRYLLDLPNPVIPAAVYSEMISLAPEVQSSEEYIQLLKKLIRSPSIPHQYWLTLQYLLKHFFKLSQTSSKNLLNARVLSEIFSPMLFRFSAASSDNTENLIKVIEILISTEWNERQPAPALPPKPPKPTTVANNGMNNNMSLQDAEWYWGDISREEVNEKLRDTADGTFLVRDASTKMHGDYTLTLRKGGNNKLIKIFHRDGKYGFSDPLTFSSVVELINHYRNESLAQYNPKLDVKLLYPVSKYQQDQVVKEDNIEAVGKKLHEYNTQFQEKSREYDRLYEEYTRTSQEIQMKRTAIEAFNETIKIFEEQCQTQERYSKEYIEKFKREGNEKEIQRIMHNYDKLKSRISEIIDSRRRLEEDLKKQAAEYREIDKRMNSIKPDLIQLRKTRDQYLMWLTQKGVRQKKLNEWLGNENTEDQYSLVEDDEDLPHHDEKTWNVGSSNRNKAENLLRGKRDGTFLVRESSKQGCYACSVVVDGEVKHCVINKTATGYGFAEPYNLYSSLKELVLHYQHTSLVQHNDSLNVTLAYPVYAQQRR

`CNC(=O)Nc1ccc2c(c1)C(=O)/C(=C/c1c(-c3nn(C)cc3C(F)(F)F)[nH]c3ccc(OC)cc13)O2` [Compound 724, 1-[(2Z)-2-({5-methoxy-2-[1-methyl-4-(trifluoromethyl)-1H-pyrazol-3-yl]-1H-indol-3-yl}methylidene)-3-oxo-2,3-dihydro-1-benzofuran-5-yl]-3-methylurea]: the pIC50 was 8.33 at PI3K-alpha (read-out: PI3Kα Avg. IC50), 7.51 on PI3K-gamma and 7.70 on human TOR.
Taken in the same sequence, the figures for `CNC(=O)Nc1ccc2c(c1)C(=O)/C(=C/c1c(-c3c(C)nn(C)c3C)[nH]c3c(C(F)(F)F)cc(OC)cc13)O2` [Compound 725, 1-[(2Z)-2-{[5-methoxy-7-(trifluoromethyl)-2-(1,3,5-trimethyl-1H-pyrazol-4-yl)-1H-indol-3-yl]methylidene}-3-oxo-2,3-dihydro-1-benzofuran-5-yl]-3-methylurea] were 7.89, 7.13 and 6.28.
Regarding `CNC(=O)Nc1ccc2c(c1)C(=O)/C(=C/c1c(-c3c(C)nn(C)c3C)[nH]c3c(C)cc(OC)cc13)O2` [Compound 726, 1-[(2Z)-2-{[5-methoxy-7-methyl-2-(1,3,5-trimethyl-1H-pyrazol-4-yl)-1H-indol-3-yl]methylidene}-3-oxo-2,3-dihydro-1-benzofuran-5-yl]-3-methylurea], the pIC50 is 8.86 at PI3K-alpha (read-out: PI3Kα Avg. IC50), 7.86 against PI3K-gamma and 7.74 on human TOR.
In the same order, the values of `COc1cc(F)c2[nH]c(-c3c(C)nn(C)c3C)c(/C=C3\Oc4ccc(NC(=O)NCCN5CCCC5)cc4C3=O)c2c1` [Compound 727, 1-[(2Z)-2-{[7-fluoro-5-methoxy-2-(1,3,5-trimethyl-1H-pyrazol-4-yl)-1H-indol-3-yl]methylidene}-3-oxo-2,3-dihydro-1-benzofuran-5-yl]-3-(2-pyrrolidin-1-ylethyl)urea] are 8.84, 8.20 and 7.32.
In the same order, the values of `CNCCNC(=O)Nc1ccc2c(c1)C(=O)/C(=C/c1c(-c3c(C)nn(C)c3C)[nH]c3c(F)cc(OC)cc13)O2` [Compound 728, 1-[(2Z)-2-{[7-fluoro-5-methoxy-2-(1,3,5-trimethyl-1H-pyrazol-4-yl)-1H-indol-3-yl]methylidene}-3-oxo-2,3-dihydro-1-benzofuran-5-yl]-3-[2-(methylamino)ethyl]urea] are 9.02, 8.45 and 8.15.
`COc1cc(F)c2[nH]c(-c3c(C)nn(C)c3C)c(/C=C3\Oc4ccc(NC(=O)Nc5ccc(C(=O)N6CCC(N(C)C)CC6)cc5)cc4C3=O)c2c1` [Compound 729, 1-(4-{[4-(dimethylamino)piperidin-1-yl]carbonyl}phenyl)-3-[(2Z)-2-{[7-fluoro-5-methoxy-2-(1,3,5-trimethyl-1H-pyrazol-4-yl)-1H-indol-3-yl]methylidene}-3-oxo-2,3-dihydro-1-benzofuran-5-yl]urea]: the negative-log IC50 (pIC50) is 9.46 on PI3K-alpha (read-out: PI3Kα Avg. IC50), 8.54 on PI3K-gamma and 9.00 at human TOR.
Taken in the same sequence, the figures for `COc1cc(F)c2[nH]c(-c3c(C)nn(C)c3C)c(/C=C3\Oc4ccc(NC(=O)Nc5ccc(C(=O)N6CCN(C)C(C)C6)cc5)cc4C3=O)c2c1` (stereo not drawn) [Compound 730, 1-{4-[(3,4-dimethylpiperazin-1-yl)carbonyl]phenyl}-3-[(2Z)-2-{[7-fluoro-5-methoxy-2-(1,3,5-trimethyl-1H-pyrazol-4-yl)-1H-indol-3-yl]methylidene}-3-oxo-2,3-dihydro-1-benzofuran-5-yl]urea] were 9.19, 8.72 and 8.52.
Taken in the same sequence, the figures for `COc1cc(F)c2[nH]c(-c3c(C)nn(C)c3C)c(/C=C3\Oc4ccc(NC(=O)Nc5ccc(C(=O)N6CCOCC6)cc5)cc4C3=O)c2c1` [Compound 731, 1-[(2Z)-2-{[7-fluoro-5-methoxy-2-(1,3,5-trimethyl-1H-pyrazol-4-yl)-1H-indol-3-yl]methylidene}-3-oxo-2,3-dihydro-1-benzofuran-5-yl]-3-[4-(morpholin-4-ylcarbonyl)phenyl]urea] were 9.26, 8.82 and 8.52.
Taken in the same sequence, the figures for `COc1cc(F)c2[nH]c(-c3c(C)nn(C)c3C)c(/C=C3\Oc4ccc(NC(=O)Nc5ccc(C(=O)N6CCC(N(C)C)C6)cc5)cc4C3=O)c2c1` (stereo not drawn) [Compound 732, 1-(4-{[3-(dimethylamino)pyrrolidin-1-yl]carbonyl}phenyl)-3-[(2Z)-2-{[7-fluoro-5-methoxy-2-(1,3,5-trimethyl-1H-pyrazol-4-yl)-1H-indol-3-yl]methylidene}-3-oxo-2,3-dihydro-1-benzofuran-5-yl]urea] were 9.48, 8.72 and 9.00.
Turning to `COc1cc(F)c2[nH]c(-c3c(C)nn(C)c3C)c(/C=C3\Oc4ccc(NC(=O)Nc5ccc(C(=O)NCCN(C)C)cc5)cc4C3=O)c2c1` [Compound 733, N-[2-(dimethylamino)ethyl]-4-({[(2Z)-2-{[7-fluoro-5-methoxy-2-(1,3,5-trimethyl-1H-pyrazol-4-yl)-1H-indol-3-yl]methylidene}-3-oxo-2,3-dihydro-1-benzofuran-5-yl]carbamoyl}amino)benzamide], the negative-log IC50 (pIC50) on PI3K-alpha (read-out: PI3Kα Avg. IC50) is 9.52; against PI3K-gamma, 8.52; on human TOR it was over 9.00.
Take `O=C1/C(=C/c2c(-c3ccc(Cl)cc3)[nH]c3ccccc23)Oc2cc(O)cc(O)c21` [Example 44, (2Z)-2-{[2-(4-chlorophenyl)-1H-indol-3-yl]methylene}-4,6-dihydroxy-1-benzofuran-3(2H)-one]: the negative logarithm of the IC50 (pIC50) at PI3K-alpha (PI3Kα Avg. IC50) is 6.27; against PI3K-gamma, 5.84; at human TOR, 6.72.
On to `O=C1/C(=C/c2c(-c3ccc4ccccc4c3)[nH]c3ccccc23)Oc2cc(O)cc(O)c21` [Example 45, (2Z)-4,6-dihydroxy-2-{[2-(2-naphthyl)-1H-indol-3-yl]methylene}-1-benzofuran-3(2H)-one], for which the pIC50 is 6.10 against PI3K-alpha (PI3Kα Avg. IC50), 5.74 against PI3K-gamma and 6.55 at human TOR.
With `O=C1/C(=C/c2c[nH]c3ccc(Br)cc23)Oc2c1ccc(O)c2O` [Example 58, (2Z)-2-[(5-bromo-1H-indol-3-yl)methylene]-6,7-dihydroxy-1-benzofuran-3(2H)-one], the negative logarithm of the IC50 (pIC50) is 6.51 at PI3K-alpha (read-out: PI3Kα Avg. IC50), 5.45 against PI3K-gamma and 4.82 on human TOR.
For `O=C1/C(=C/c2c[nH]c3ccc(Cl)cc23)Oc2cc(O)cc(O)c21` [Example 60, (2Z)-2-[(5-chloro-1H-indol-3-yl)methylene]-4,6-dihydroxy-1-benzofuran-3(2H)-one], the pIC50 on PI3K-alpha (PI3Kα Avg. IC50) is 6.31; at PI3K-gamma, 5.44; on human TOR it was 4.96.
For the compound `COc1ccc2[nH]cc(/C=C3\Oc4c(ccc(O)c4O)C3=O)c2c1` [Example 62, (2Z)-6,7-dihydroxy-2-[(5-methoxy-1H-indol-3-yl)methylene]-1-benzofuran-3(2H)-one], the negative-log IC50 (pIC50) on PI3K-alpha (read-out: PI3Kα Avg. IC50) is 6.17; on PI3K-gamma, 5.42; on human TOR it was 4.80.
Taken in the same sequence, the figures for `Cc1ccc2[nH]cc(/C=C3\Oc4c(ccc(O)c4O)C3=O)c2c1` [Example 65, (2Z)-6,7-dihydroxy-2-[(5-methyl-1H-indol-3-yl)methylene]-1-benzofuran-3(2H)-one] were 6.42, 5.42 and under 4.70.
Taken in the same sequence, the figures for `O=C1/C(=C/c2c(-c3ccccc3)[nH]c3ccccc23)Oc2c(O)cccc21` [Example 67, (2Z)-7-hydroxy-2-[(2-phenyl-1H-indol-3-yl)methylene]-1-benzofuran-3(2H)-one] were 6.48, 6.52 and 5.08.
Taken in the same sequence, the figures for `COc1ccc2[nH]c(C)c(C=C3Oc4c(ccc(O)c4O)C3=O)c2c1` [Example 69, 6,7-dihydroxy-2-[(5-methoxy-2-methyl-1H-indol-3-yl)methylene]-1-benzofuran-3(2H)-one] were 6.40, 5.46 and under 4.70.
Take `COc1ccc2[nH]cc(C=C3Oc4cccc(O)c4C3=O)c2c1` [Example 78, 4-hydroxy-2-[(5-methoxy-1H-indol-3-yl)methylene]-1-benzofuran-3(2H)-one]: the pIC50 at PI3K-alpha (read-out: PI3Kα Avg. IC50) is 6.29; on PI3K-gamma, 5.92; on human TOR, 5.54.
In the same order, the values of `COc1ccc2c(c1)c(C=C1Oc3c(ccc(O)c3O)C1=O)c(C)n2C` [Example 90, 6,7-dihydroxy-2-[(5-methoxy-1,2-dimethyl-1H-indol-3-yl)methylene]-1-benzofuran-3(2H)-one] are 6.70, 5.91 and 5.80.
Taken in the same sequence, the figures for `O=C1C(=Cc2c[nH]c3cc(Br)ccc23)Oc2cc(O)cc(O)c21` [Example 143, 2-[(6-bromo-1H-indol-3-yl)methylene]-4,6-dihydroxy-1-benzofuran-3(2H)-one] were 5.73, 5.18 and 5.35.
On to `O=C1C(=Cc2c(-c3ccccc3)n(CCN3CCOCC3)c3ccccc23)Oc2cc(O)cc(O)c21` [Example 147, 4,6-dihydroxy-2-{[1-(2-morpholin-4-ylethyl)-2-phenyl-1H-indol-3-yl]methylene}-1-benzofuran-3(2H)-one], for which the negative-log IC50 (pIC50) on PI3K-alpha (read-out: PI3Kα Avg. IC50) was 5.61; against PI3K-gamma, 5.22; at human TOR it was 5.96.
`CN(C)CCn1c(-c2ccccc2)c(C=C2Oc3cc(O)cc(O)c3C2=O)c2ccccc21` [Example 148, 2-({1-[2-(dimethylamino)ethyl]-2-phenyl-1H-indol-3-yl}methylene)-4,6-dihydroxy-1-benzofuran-3(2H)-one]: the pIC50 is 5.57 on PI3K-alpha (read-out: PI3Kα Avg. IC50), 5.33 on PI3K-gamma and 6.30 at human TOR.

Broadly, the pIC50 is −log10 of the IC50, conventionally taken in molar units.
